# Test results published in patent US12522628B2, “Aryl glucoside derivative and use thereof in drug” (SHANGHAI ZHEYE BIOTECHNOLOGY CO. LTD., priority 2020, dated 2026).
# How the values were obtained:
# [1] = Observation of defecation (loose stools) in rats during OGTT study; assay type: in vivo, SD rats; conditions: 0.012 mg/kg oral gavage, within 48 hours before and after the experiment
# Protocol: Experimental process: the animals were fed a normal diet with consecutive administration for 14 days, and the glucose tolerance test was performed on day 15, blood glucose was detected before administration (−30 min), before giving glucose (0 min), and 10, 30, 60, and 120 min after giving glucose solution, and the defecation of animals was observed.
# blood glucose [2] = assay: Oral glucose tolerance test (OGTT) after consecutive administration in mice; assay type: in vivo; conditions: oral gavage 5 days, OGTT on day 6
# Protocol: (§1) • Experimental animals: SPF male mice; • Compound preparation: an appropriate amount of the compounds of Example 5 was weighed, and uniformly suspended with an appropriate amount of 0.5% CMC-Na solution; • Preparation of glucose solution: an appropriate amount of glucose powder was weighed and dissolved with an appropriate amount of pure water; • Administration and dosage: oral gavage; blank vehicle group, high-dose group (1.6 mg/kg), low-dose group (0.12 mg/kg).
# (§2) Experimental process: • (1) The mice were fed a high-sugar diet for 6 days, and then grouped (10 mice in each group) to enter the administration stage; • (2) Example compound 5 was administered at 5:00 pm every day from day 1 to day 5, once a day, and then the animals were fed a high-sugar free diet, and the defecation of the animals was observed. • (3) On day 6, oral glucose tolerance test was performed, and glucose solution (2 g/kg) was orally administered. Blood glucose was detected before (0 min) and 10, 30, and 60 min after giving glucose solution, respectively.
# blood glucose [3] = assay: In vivo hypoglycemic efficacy experiment combined with sitagliptin, STZ-induced type 2 diabetes mouse model; design: species or system Balb/C male mice
# Protocol: Model establishment: SPF grade Balb/C male mice were used in this experiment, and the establishment of the type 2 diabetes mouse model was induced by intraperitoneal injection of streptozotocin (STZ) supplemented by high-fat and high-sugar diet.
# Administration: normal group, model group, low-dose combined administration group (the compound of Example 5 0.02 mg/kg+sitagliptin 20 mg/kg), medium-dose combined administration group (the compound of Example 5 0.06 mg/kg+sitagliptin 20 mg/kg), high-dose combined administration group (the compound of Example 5 0.1 mg/kg+sitagliptin 20 mg/kg), sitagliptin group (20 mg/kg). The normal group and the model group were given the solvent by gavage.
# [4] = Observation of defecation (loose stools) in mice, day 1 to day 5; assay type: in vivo
# Protocol: as §1, §2
# SGLT1 [5] = biological target: T1, SGLT1 (Homo sapiens, UniProt P13866); assay: SGLT1 Inhibitor Activity Experiment 1; assay type: cell-based
# T1 sequence (P13866 1-664): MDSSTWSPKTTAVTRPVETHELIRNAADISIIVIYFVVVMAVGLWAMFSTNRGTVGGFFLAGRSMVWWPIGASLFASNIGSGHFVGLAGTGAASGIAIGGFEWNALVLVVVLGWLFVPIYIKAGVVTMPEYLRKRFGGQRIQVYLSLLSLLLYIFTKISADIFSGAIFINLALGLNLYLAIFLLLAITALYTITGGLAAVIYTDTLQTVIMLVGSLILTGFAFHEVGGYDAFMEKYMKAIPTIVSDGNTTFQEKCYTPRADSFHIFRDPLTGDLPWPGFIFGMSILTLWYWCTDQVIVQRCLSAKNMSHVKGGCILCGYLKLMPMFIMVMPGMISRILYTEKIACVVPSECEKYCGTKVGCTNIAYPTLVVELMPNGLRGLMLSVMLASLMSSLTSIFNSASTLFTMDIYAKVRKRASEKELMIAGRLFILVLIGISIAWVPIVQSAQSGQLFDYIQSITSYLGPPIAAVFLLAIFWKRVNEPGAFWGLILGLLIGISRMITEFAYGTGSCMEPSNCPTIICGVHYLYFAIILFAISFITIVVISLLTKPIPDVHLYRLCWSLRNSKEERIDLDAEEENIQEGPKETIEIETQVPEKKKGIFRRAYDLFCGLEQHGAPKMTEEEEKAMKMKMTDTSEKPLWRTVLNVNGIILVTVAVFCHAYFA
# Protocol: The inhibitory activity of SGLT1 was tested with reference to the method described in document (Journal of Medicinal Chemistry 2017, 60, 710-721, Discovery of LX2761, a Sodium-Dependent Glucose Cotransporter 1 (SGLT1) Inhibitor Restricted to the Intestinal Lumen, for the Treatment of Diabetes).
# SGLT1 [6] = biological target: T1, SGLT1; assay: HSGLT1 inhibitor activity experiment: 2-NBDG uptake by HEK293 cells stably expressing human SGLT1; assay type: cell-based; design: expressed in transfected cells; host or cells: HEK293
# Protocol: Inhibitory activity testing was performed with reference to a similar method described in document (Acta Pharmaceutica Sinica 2017, 52(6):897-903; Nature Protocols (2007), 2(3), 753-762; Journal of Biochemical and Biophysical Methods (2005), 64(3), 207-215; Diabetes Technology & Therapeutics (2011), 13(7), 743-775).
# In this experiment, the in vitro activity assay was evaluated using the uptake of 2-NBDG (2-Deoxy-2-[(7-nitro-2,1,3-benzoxadiazol-4-yl)amino]-D-glucose, CAS NO: 186689-07-6) by human embryonic kidney epithelial cells (HEK293, stably expressing human SGLT1), and the SGLT1 inhibitory activity of the target compound was determined by measuring its half-maximal inhibitory concentration (IC50).
# HEK293 cells that can stably express human SGLT1 gene were inoculated into a 96-well clear-bottom black plates containing DMEM medium. The cells were incubated at 37° C., 5% CO2in a cell incubator. The medium in the 96-well plate was aspirated, and the plate was treated with low-glucose serum-free DMEM medium, and washed once with non-specific uptake buffer and once with Na^+-dependent uptake buffer. Uptake buffer containing test compound was added to each well of cells, followed by uptake buffer containing 2-NBDG for glucose uptake, and the cell plate was incubated at 37° C., 5% CO2. The compounds were gradiently diluted. The uptake reaction was stopped by removing the culture medium, and after washing the cells with ice-cold uptake buffer, the washing solution was removed. The cells were lysed by adding NaOH, and the content of 2-NBDG in the cells was detected by a fluorescence microplate reader. The protein concentration of the lysate was measured by BCA method, the uptake of 2-NBDG was quantified by fluorescence intensity/protein content, and the obtained data were analyzed using GraphPad Prism to determine the median inhibitory concentration (IC50) of the compound to be tested.
smiles,measurement,setting,value
C#CCN(C)CCNC(=O)CCCc1ccc(Cc2cc([C@@H]3O[C@H](SC)[C@@H](O)[C@H](O)[C@H]3O)ccc2C)cc1 [Example 5],loose stools in experimental animals,[1],no loose stools were observed
same,blood glucose level of mice in OGTT,blood glucose [2]; high-dose group (1.6 mg/kg),significantly reduce the blood glucose level
same,blood glucose level of mice in OGTT,blood glucose [2]; low-dose group (0.12 mg/kg),significantly reduce the blood glucose level
same,dose-effect relationship of blood glucose reduction,"blood glucose [3]; Example 5 0.02, 0.06, 0.1 mg/kg combined with sitagliptin 20 mg/kg",there is a dose-effect relationship
same,blood glucose level of diabetic model animals,"blood glucose [3]; Example 5 0.02, 0.06 or 0.1 mg/kg combined with sitagliptin 20 mg/kg",significantly reduce the blood glucose level
same,number of animals with loose stools,"[4]; high dose group (1.6 mg/kg), day 1",1 animal
same,loose stools (in words),"[4]; high dose group (1.6 mg/kg), day 2 to day 5",did not have loose stools
same,Statistics of loose stools in animals,"[4]; high-dose group (1.6 mg/kg), Day 1, animals with loose stool/animals in group",1/10
same,Statistics of loose stools in animals,"[4]; high-dose group (1.6 mg/kg), Day 2",0/10
same,Statistics of loose stools in animals,"[4]; high-dose group (1.6 mg/kg), Day 3",0/10
same,Statistics of loose stools in animals,"[4]; high-dose group (1.6 mg/kg), Day 4",0/10
same,Statistics of loose stools in animals,"[4]; high-dose group (1.6 mg/kg), Day 5",0/10
same,Statistics of loose stools in animals,"[4]; low-dose group (0.12 mg/kg), Day 1",0/10
same,Statistics of loose stools in animals,"[4]; low-dose group (0.12 mg/kg), Day 2",0/10
same,Statistics of loose stools in animals,"[4]; low-dose group (0.12 mg/kg), Day 3",0/10
same,Statistics of loose stools in animals,"[4]; low-dose group (0.12 mg/kg), Day 4",0/10
same,Statistics of loose stools in animals,"[4]; low-dose group (0.12 mg/kg), Day 5",0/10
same,loose stools (in words),"[4]; low-dose group (0.12 mg/kg), continuous administration for 5 days",did not have loose stools
same,IC50,SGLT1 [5],< 50 nM
same,activity of inhibiting SGLT1 (in words),SGLT1 [6],significant activity of inhibiting SGLT1
same,IC50,"SGLT1 [6]; 2-NBDG uptake, HEK293 stably expressing human SGLT1, read-out: SGLT1 Inhibitory Activity",0.37 nM
